According to ChEMBL document CHEMBL1153050, “Amidine derived inhibitors of acid-sensing ion channel-3 (ASIC3)” (Bioorg Med Chem Lett, 2009):
The source made the active and inactive calls. The calls are words filed in the database; no cut-off is given here.

What was measured:
[1] = molecular target: T1, Acid-sensing ion channel 3 (Homo sapiens) (UniProt Q9UHC3); experiment: Inhibition of ASIC3 at 1 uM by patch-clamp electrophysiology assay relative to baseline peak current
T1 sequence (whole entry): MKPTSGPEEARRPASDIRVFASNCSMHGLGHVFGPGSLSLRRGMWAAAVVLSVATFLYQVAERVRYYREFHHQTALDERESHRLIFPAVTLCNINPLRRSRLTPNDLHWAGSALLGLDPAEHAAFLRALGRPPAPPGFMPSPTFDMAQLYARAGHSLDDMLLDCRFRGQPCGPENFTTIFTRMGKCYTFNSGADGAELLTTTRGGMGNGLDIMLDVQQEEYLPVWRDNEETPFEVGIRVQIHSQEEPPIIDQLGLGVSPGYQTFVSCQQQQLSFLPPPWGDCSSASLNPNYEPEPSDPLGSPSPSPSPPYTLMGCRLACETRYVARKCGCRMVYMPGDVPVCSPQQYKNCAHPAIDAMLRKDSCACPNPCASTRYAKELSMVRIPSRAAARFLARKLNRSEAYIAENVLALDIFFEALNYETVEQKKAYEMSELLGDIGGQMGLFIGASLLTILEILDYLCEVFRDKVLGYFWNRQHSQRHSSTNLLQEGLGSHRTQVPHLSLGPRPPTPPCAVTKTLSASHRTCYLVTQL

[2] = molecular target: T1, Acid-sensing ion channel 3 (Homo sapiens); experiment: Inhibition of ASIC3 at 10 uM by patch-clamp electrophysiology assay relative to baseline peak current
[3] = molecular target: T2, Acid-sensing ion channel 3 (Homo sapiens, UniProt Q9UHC3); experiment: Inhibition of ASIC3 by patch-clamp electrophysiology assay
T2 sequence (Q9UHC3 whole entry): T1 sequence (whole entry)

[4] = Half life in iv dosed rat plasma; type: ADME, organism-based
[5] = Plasma clearance in iv dosed rat; type: ADME, organism-based
Rattus norvegicus [6] = experiment: Analgesic activity against complete Freund's adjuvant-induced […] in Sprague-Dawley rat assessed as reversal of mechanical hypersensitivity at 30 mg/kg, ip after 30 mins; type: functional, organism-based; parameters: dose 30 mg/kg
[7] = Blood clearance in iv dosed rat; type: ADME, organism-based; details: whole blood
[8] = Half life in iv dosed rat blood; type: ADME, organism-based; details: whole blood
Rattus norvegicus [9] = experiment: Analgesic activity against complete Freund's adjuvant-induced […] in Sprague-Dawley rat assessed as reversal of mechanical hypersensitivity at 20 mg/kg, po after 30 mins; type: functional, organism-based; parameters: dose 20 mg/kg

SMILES | inhibition [1] | inhibition [2] | IC50 [3] | further results
N=C(N)c1ccc2[nH]c(-c3cc(F)cc(Br)c3)cc2c1 | 93% | 96% | 59 nM | –
N=C(N)c1ccc2[nH]c(-c3cc(Cl)cc(CNc4ccccc4)c3)cc2c1 | 83% | – | 114 nM | –
N=C(N)c1ccc2[nH]c(-c3ccccc3)cc2c1 | – | 88% | 2760 nM | –
N=C(N)c1ccc(-c2cc3ccc(C(=N)N)cc3[nH]2)cc1 | 33% | 83% | – | –
N=C(N)c1ccc2[nH]c(-c3cc(Cl)cc(Cl)c3)cc2c1 | 92% | 98% | 133 nM | half-life [4]: 2 h; clearance [5]: 8.5 mL/min/kg; Activity (Rattus norvegicus [6]): Active; clearance [7]: 8.5 mL/min/kg; half-life [8]: 4.4 h; Activity (Rattus norvegicus [9]): Active
N=C(N)c1ccc2[nH]c(-c3cc(F)cc(Cl)c3)cc2c1 | 82% | 99% | 278 nM | –
Cn1c(-c2ccc(C(=N)N)cc2)cc2cc(C(=N)N)ccc21 | 14% | – | – | –
N#Cc1c(Cl)cc(-c2cc3cc(C(=N)N)ccc3[nH]2)cc1Cl | 83% | – | 272 nM | –
N=C(N)c1ccc(-c2nc3cc(C(=N)N)ccc3[nH]2)cc1 | – | 53% | – | –
N=C(N)c1ccc2[nH]c(-c3cc(Br)cc(Br)c3)cc2c1 | 92% | 92% | 59 nM | –
N=C(N)c1ccc2[nH]c(-c3cc(Cl)cc(NCc4ccccc4)c3)cc2c1 | 91% | – | 77 nM | –
N=C(N)c1ccc(-c2cc3ccccc3[nH]2)cc1 | – | 46% | – | –
N=C(N)c1ccc2[nH]c(-c3cc(Cl)cc(-c4ccccc4)c3)cc2c1 | 94% | – | – | –
N=C(N)c1ccc2[nH]c(-c3cc(N)cc(Cl)c3)cc2c1 | 78% | – | 95 nM | –
COc1cc(F)cc(-c2cc3cc(C(=N)N)ccc3[nH]2)c1 | 77% | 98% | 374 nM | –
N=C(N)c1ccc2[nH]c(-c3cc(Cl)nc(Cl)c3)cc2c1 | 84% | – | 291 nM | –
Cc1cc(Cl)cc(-c2cc3cc(C(=N)N)ccc3[nH]2)c1 | 87% | – | 51 nM | –
N=C(N)c1ccc2cc(-c3ccccc3)[nH]c2c1 | 18% | – | – | –
N=C(N)c1ccc2[nH]c(-c3cc(Cl)cc(Cl)c3Cl)cc2c1 | 91% | – | 135 nM | –
